Values after ≈ are worked out from the molar mass of the structure shown. Positions of bridges follow the written chain, without caps; N, C: chain ends. Residues, ends and D or L forms follow the SMILES beside them. No end group written: not given here.
How the values were obtained:
E. faecalis V583 = assay: microbe, parasite or virus in culture; format: cell-based, Enterococcus faecalis; conditions: peptide alone, without vancomycin; VanB
E. faecalis JH2-2 08048 = assay: microbe, parasite or virus in culture; format: cell-based, Enterococcus faecalis; conditions: peptide alone, without vancomycin; VanB
Method: (§1) The MIC of vancomycin was determined by the microdilution method described in the guidelines of the European Committee on Antimicrobial Susceptibility Testing (EUCAST 2024, v14.0 Breakpoint Tables).[58] For enterococci, GM17 medium was used instead of CAMH medium since enterococci cannot degrade starch, the main carbohydrate of MH medium. 2-fold serial dilutions of the tested antibiotic were performed to obtain concentrations ranging from 0.5 to 512 μg/mL. LP were then added to the wells at the desired concentration. The medium was inoculated with a final inoculum of 5 × 10^5 CFU/mL. The MIC is the lowest concentration that prevents visible in vitro growth.

E. faecalis merz96 = assay: microbe, parasite or virus in culture; format: cell-based, Enterococcus faecalis; conditions: peptide alone, without vancomycin; VanB
E. faecium 1 231 410 = assay: microbe, parasite or virus in culture; format: cell-based, Enterococcus faecium; conditions: peptide alone, without vancomycin; VanA
E. faecalis HIP11704 = assay: microbe, parasite or virus in culture; format: cell-based, Enterococcus faecalis; conditions: peptide alone, without vancomycin; VanA
E. faecium 1 231 502 = assay: microbe, parasite or virus in culture; format: cell-based, Enterococcus faecium; conditions: peptide alone, without vancomycin; VanA
E. faecium 1 230 933 = assay: microbe, parasite or virus in culture; format: cell-based, Enterococcus faecium; conditions: peptide alone, without vancomycin; VanA
S. aureus T-SAR12 VRSA.A = assay: microbe, parasite or virus in culture; format: cell-based, Staphylococcus aureus; conditions: peptide alone, without vancomycin; VanA
Method: as §1

S. aureus T-SAR12 VRSA.B = assay: microbe, parasite or virus in culture; format: cell-based, Staphylococcus aureus; conditions: peptide alone, without vancomycin; VanB
Method: as §1

E. faecalis V583 ΔvanB = assay: microbe, parasite or virus in culture; format: cell-based, Enterococcus faecalis; conditions: peptide alone, without vancomycin; van-
S. aureus 16038 (VISA) = assay: microbe, parasite or virus in culture; format: cell-based, Staphylococcus aureus; conditions: peptide alone, without vancomycin; van-
VanS^127-384 [1] = molecular target: T1, VanS^127-384 (Enterococcus faecium, UniProt Q06240); assay: biochemical; format: binding
T1 construct: only the C-terminal His6-tagged VanA-type VanS^127-384 could be obtained as a soluble protein; made in house; host or cells: E. coli BL21(DE3), plasmid pET29b(+) vanS^127-384

[2] = tested on: Galleria mellonella larvae; assay: Toxicity toward larvae; format: in vivo; conditions: siamycin I-loaded nanoemulsion, about 18 mg/kg, 90 min and 24 h, observed to 96 h
Method: Larvae were infected with the wild-type strain E. faecalis V583, the isogenic vancomycin-sensitive mutant V583 ΔvanB, or an equivalent volume of saline solution. At t90min and t24h post-infection (p.i.), the larvae were treated with the nanoemulsion alone (referred to as formulation), the nanoemulsion loaded with siamycin I (3.92 μg/larvae; about 18 mg/kg), vancomycin (1 μg/larvae; about 4.6 mg/kg) alone, or a combination of both. Larvae survival was assessed, and statistical analysis was performed at the endpoint t96h.
To assess the C1LPs' efficacy as treatment of E. faecalis infection, the strains V583 or V583 ΔvanB were grown without previous C1LP exposition. 20 larvae were used for each condition. At 1.5 and 24 h p.i., larvae were injected with 4.76 mg of vancomycin per kilogram and/or 18 mg of siamycin I per kilogram, or the equivalent volume of nanoemulsion as a control. Larvae killing was then monitored between 1.5 and 96 h p.i.. Data and statistical analysis were performed using the Kaplan-Meier R package and the log -rank test, respectively.

[3] = tested on: all tested E. faecalis and E. faecium strains; assay: Growth inhibition / MIC, strain panel; format: cell-based; conditions: peptide alone
[4] = tested on: VanB- or VanA-type strains; conditions: same among the different VanB- or VanA-type strains
Method: as §1

[5] = molecular target: T2, VanS^127-384 (VanA-type, C-His6) (Enterococcus faecium, UniProt Q06240); assay: biochemical
T2 construct: only the C-terminal His6-tagged VanA-type VanS^127-384 could be obtained as a soluble protein; made in house; host or cells: E. coli BL21(DE3), plasmid pET29b(+) vanS^127-384
Method: (§2) Terrific medium[68] […] The culture was incubated at 37°C with agitation at 180 rpm. Induction of protein expression was achieved by adding IPTG to a final concentration of 0.1 mM when the bacterial density reached an OD600 of 0.5. The culture was then incubated for 20 h at 25°C with agitation at 180 rpm. The cells were then washed twice in purification buffer (20 mM sodium phosphate buffer, 500 mM NaCl, 5 mM MgCl2, 10 mM imidazole (pH 7.4)). Cells were treated with lysozyme at 1 mg/mL final concentration for 30 min at 4°C and lysed by sonication with the Fisherbrand Model 120 Sonic Dismembrator (Fisher scientific, USA). The total fraction recovered was centrifuged at 10000 rpm at 4°C for 30 to 45 min and only the supernatant, representing the soluble fraction, was recovered for purification.
(§3) Protein purification was carried out on a HisTrap FF Crude 5 mL column (Cytiva, USA) using the ÄKTA start device (Cytiva, USA), following the manufacturer’s recommendations. […] Protein concentration was determined with the Pierce BCA Protein Assay Kit (Thermo Scientific, USA) according to the manufacturer’s recommendations and then stored at −80°C.
(§4) The phosphorylation assay followed reported procedure with some modifications.[38] […] The reaction was allowed to start by adding ATP and NADH, and monitored continuously at 340 nm at 37°C by a microplate reader (POLARstar OMEGA, BMG Labtech, Germany). […]

[6] = molecular target: T3, VanS^127-384 (VanA-type, C-His6) (Enterococcus faecium, UniProt Q06240); assay: biochemical; conditions: 0–100 μM peptide
T3 construct: only the C-terminal His6-tagged VanA-type VanS^127-384 could be obtained as a soluble protein; made in house; host or cells: E. coli BL21(DE3), plasmid pET29b(+) vanS^127-384
T3 sequence (Q06240 whole entry, looked up): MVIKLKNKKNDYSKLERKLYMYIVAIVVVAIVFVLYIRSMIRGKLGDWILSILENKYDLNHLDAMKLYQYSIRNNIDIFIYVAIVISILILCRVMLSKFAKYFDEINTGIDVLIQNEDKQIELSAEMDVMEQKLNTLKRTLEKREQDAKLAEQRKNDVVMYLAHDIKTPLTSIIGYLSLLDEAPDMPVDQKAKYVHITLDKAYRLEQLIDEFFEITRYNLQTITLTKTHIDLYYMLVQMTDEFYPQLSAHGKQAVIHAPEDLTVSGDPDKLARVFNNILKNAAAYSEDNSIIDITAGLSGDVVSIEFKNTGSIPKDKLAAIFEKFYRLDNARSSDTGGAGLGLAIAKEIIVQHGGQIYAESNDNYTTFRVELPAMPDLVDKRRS
Method: as §2, §3, §4

VanS^127-384 [7] = molecular target: T4, VanS^127-384 (Enterococcus faecium, UniProt Q06240); assay: biochemical; format: binding; conditions: 10 μM VanS, pH 7.5; siamycin I 6 to 90 μM; sviceucin 12 to 180 μM; microcin J25 25 to 200 μM
T4 construct: only the C-terminal His6-tagged VanA-type VanS^127-384 could be obtained as a soluble protein; made in house; host or cells: E. coli BL21(DE3), plasmid pET29b(+) vanS^127-384
T4 sequence (Q06240 whole entry, looked up): T3 sequence (Q06240 whole entry, looked up)
Method: Protein purification was carried out on a HisTrap FF Crude 5 mL column (Cytiva, USA) using the ÄKTA start device (Cytiva, USA), following the manufacturer’s recommendations. The column was equilibrated with the purification buffer and then loaded with the soluble fraction. The protein of interest was washed and eluted with an imidazole gradient of 10 mM–500 mM in purification buffer. The purified protein was desalted and concentrated on a Vivaspin 6 30 kDa MWCO column (Cytiva, USA) according to the manufacturer’s recommendations. Protein concentration was determined with the Pierce BCA Protein Assay Kit (Thermo Scientific, USA) according to the manufacturer’s recommendations and then stored at −80°C.
All the experiments were performed in 96 Fast PCR Plates full skirt (Sarstedt, Germany) and in CFX96 Real-Time PCR system (BioRad, USA). Screening was conducted (Table S7) to determine the best buffer and ratios of protein and SYPRO Orange Protein Gel Stain (Sigma-Aldrich, USA). […] The Tm of each well was determined on the Melt Curve panel with a negative peak type. Tm means were calculated for each condition before model analysis. ΔT was calculated from the subtraction of the Tm of the protein with the buffer alone and the Tm with the lasso peptides. […]

## CC[C@H](C)[C@@H]1NC(=O)[C@H](C)NC(=O)[C@H](Cc2ccc(O)cc2)NC(=O)CNC(=O)[C@@H]2CSSC[C@@H]3NC(=O)C[C@H](NC(=O)[C@H](CC(N)=O)NC(=O)[C@H](CSSC[C@@H](C(=O)N[C@@H](Cc4ccccc4)C(=O)N[C@@H](Cc4c[nH]c5ccccc45)C(=O)O)NC(=O)[C@H](C(C)C)NC1=O)NC(=O)[C@H](CO)NC(=O)CNC(=O)[C@H](C(C)C)NC(=O)CNC(=O)[C@H](CC(C)C)NC3=O)C(=O)N[C@@H](Cc1ccccc1)C(=O)N[C@@H](C)C(=O)NCC(=O)N2 [Siamycin I] (CLGVGSCNDFAGCGYAIVCFW-OH; disulfide 1-13, 7-19; lactam N-9)
E. faecalis V583
  Lasso peptide MIC: 5 µM
E. faecalis JH2-2 08048
  Lasso peptide MIC: 5 µM
E. faecalis merz96
  Lasso peptide MIC: 5 µM
E. faecium 1 231 410
  Lasso peptide MIC: 5 µM
E. faecalis HIP11704
  Lasso peptide MIC: 5 µM
E. faecium 1 231 502
  Lasso peptide MIC: 5 µM
E. faecium 1 230 933
  Lasso peptide MIC: 5 µM
S. aureus T-SAR12 VRSA.A
  Lasso peptide MIC: 5 µM
S. aureus T-SAR12 VRSA.B
  Lasso peptide MIC: 5 µM
E. faecalis V583 ΔvanB
  Lasso peptide MIC: 5 µM
S. aureus 16038 (VISA)
  Lasso peptide MIC: 5 µM
VanS^127-384 [1]
  Kd: 38 ± 1 µM
[2]
  toxicity toward the larvae: did not exhibit toxicity toward the larvae
[3]
  MIC, complete growth inhibition: 5 µM (≈ 10.8 µg/mL)
[4]
  MIC of peptide in absence of vancomycin: 5 µM

## CC[C@H](C)[C@@H]1NC(=O)[C@H](Cc2c[nH]c3ccccc23)NC(=O)[C@H](C)NC(=O)[C@H]([C@@H](C)O)NC(=O)CNC(=O)[C@@H]2CSSC[C@@H]3NC(=O)C[C@H](NC(=O)[C@H]([C@@H](C)O)NC(=O)[C@H](CSSC[C@@H](C(=O)N[C@H](C(=O)O)C(C)C)NC1=O)NC(=O)[C@H](CC(=O)O)NC(=O)CNC(=O)CNC(=O)[C@H](Cc1c[nH]c4ccccc14)NC(=O)[C@H](C(C)C)NC3=O)C(=O)N[C@@H](Cc1ccccc1)C(=O)N[C@@H](CC(C)C)C(=O)NCC(=O)N2 [Sviceucin] (CVWGGDCTDFLGCGTAWICV-OH; disulfide 1-13, 7-19; lactam N-9)
E. faecalis V583
  Lasso peptide MIC: >10 µM
E. faecalis JH2-2 08048
  Lasso peptide MIC: >10 µM
E. faecalis merz96
  Lasso peptide MIC: >10 µM
E. faecium 1 231 410
  Lasso peptide MIC: >10 µM
E. faecalis HIP11704
  Lasso peptide MIC: >10 µM
E. faecium 1 231 502
  Lasso peptide MIC: >10 µM
E. faecium 1 230 933
  Lasso peptide MIC: >10 µM
S. aureus T-SAR12 VRSA.A
  Lasso peptide MIC: >10 µM
S. aureus T-SAR12 VRSA.B
  Lasso peptide MIC: >10 µM
E. faecalis V583 ΔvanB
  Lasso peptide MIC: >10 µM
S. aureus 16038 (VISA)
  Lasso peptide MIC: >10 µM
[5]
  IC50: 10.8 ± 1.5 µM
VanS^127-384 [1]
  Kd: 52 ± 1.6 µM
[3]
  MIC, complete growth inhibition: above 10 μM
[4]
  MIC of peptide in absence of vancomycin: > 10 µM

## Microcin J25: unrelated lasso peptide microcin J25 (GGAGHVPEYFVGIGTPISFYG; not fully specified)
[6]
  effect on VanS^127-384 autophosphorylation, in words: had no effect on VanS^127-384
VanS^127-384 [7]
  effect on melting temperature (Tm) of VanS^127-384, in words: did not affect the Tm of VanS^127-384

— publication PMC11872507, “Lasso peptides sviceucin and siamycin I exhibit anti-virulence activity and restore vancomycin effectiveness in vancomycin-resistant pathogens” (iScience, 2025)
